Laboratory results taken from US12569576B2, “Compositions and methods for measuring oxidative stress” (Washington University, priority 2020, dated 2026).
Where “and” joins values, the source holds several entries; their conditions need not be identical. Equal entries are not always repeated.

Legend:
[1] = tested on: A549 cells; experiment: Galuminox uptake in LPS-treated or serum/glucose deprived A549 cells with ROS-attenuating drugs; type: cell-based, human; conditions: LPS-treated or nutrient deprived A549 cells; Galuminox 20 μM 60 min
Protocol: For evaluation of therapeutic effects of drugs, such as Carvedilol (CAR), Dexrazoxane (DEX), and mitoTempo (MT) on either serum/glucose deprived media- or LPS-induced superoxide production, A549 cells were incubated with either LPS (1 μg/mL) or serum/glucose deprived (starvation) media for 24 h, and thereafter incubated with Carvedilol, Dexrazoxane, and mitoTempo 24 h at 37° C. Next day, media was removed from wells, cells were carefully rinsed with PBS (2×200 μL), fresh media (200 μL) was added, and cells were incubated with Galuminox (20 μM) at 37° C. for 60 min. For controls, untreated cells were incubated with Galuminox (20 μM) under identical conditions. Thereafter, fluorescence images were acquired, and cellular uptake was quantified as described above.

[2] = tested on: A549 cells; experiment: Live cell fluorescence imaging, cellular accumulation in LPS-treated A549 cells; type: cell-based, human; conditions: LPS 1 μg/mL 24 h
Protocol: Human alveolar basal epithelial (A549) adenocarcinoma cells were grown in Dulbecco's Modified Eagle Medium (DMEM) supplemented with 1-glutamine (2 mM), penicillin/streptomycin (200 IU.) and heat-inactivated fetal calf serum (10%). The cells were grown at 37° C. under a 5% CO2 atmosphere.
Live cell fluorescence imaging studies were performed at Washington University Center for Cellular Imaging (WUCCI). For imaging studies, A549 cells or their mt-Keima transfected counterparts were plated onto borosilicate 8-well chambered coverglass (Labtek) and allowed to grow to approximately 70% confluence at 37° C. under 5% CO2 atmosphere in the culture media (200 μL) and treated with LPS (1 μg/mL) for 24 h. Following LPS treatments, all wells were rinsed with fresh media. […] Images were processed and analyzed using the ImageJ software package (NIH). […] For analysis, ROIs were drawn on cells of both channels, scatter plots were obtained, and Pearson's Correlation Coefficients (PCC) were determined as described previously (K. W. Dunn, M. M. Kamocka, J. H. McDonald. A practical guide to evaluating colocalization in biological microscopy. Am. J. Physiol. Cell Physiol., 300 (2011), pp. C723-C742.).

[3] = Biodistribution studies (post preclinical imaging); type: in vivo, C57Bl6 mice; conditions: for Biodistribution, Bladder / Biodistribution, Blood / Biodistribution, Bone / Biodistribution, Brain / Biodistribution, Colon / Biodistribution, Fat / Biodistribution, Heart / Biodistribution, Intestine / Biodistribution, Kidney / Biodistribution, Liver / Biodistribution, Lung / Biodistribution, Muscle: 60 min, mean, n=4
Source text: All animal procedures were approved by the Washington University Animal Studies Committee. Following microPET/CT imaging, mice (n=4) were euthanized by cervical dislocation. Blood samples were obtained by cardiac puncture, organs then harvested rapidly, and all tissue samples analyzed for γ-activity using Beckman Gamma 8000 counter. All samples were decay-corrected to the time the γ-counter was started. Standard samples were counted with the organs for each animal and represent […] of the injected dose. An additional dose was diluted into milliQ water (100 mL) and aliquots (1 mL) were counted with each mouse. Data were quantified as the percentage injected dose (% ID) per gram of tissue (tissue kBq (injected kBq)^−1 (g tissue)^−1×100) in Table 2, shown below.

[4] = tested on: ROS activity in acutely injured lungs; experiment: Preclinical PET/CT imaging, mouse model of LPS-mediated acute lung injury; type: in vivo; conditions: for Standard Uptake Value (SUV) in lungs: n=4, frames 45-60 min
Protocol: All animal procedures were approved by the Washington University Animal Studies Committee. Imaging and biodistribution studies were performed in C57Bl6 mice (average weight, 24 g). Male mice (n=4) were treated either with LPS at a dose of 5 μg/g or vehicle (saline) 24 h prior to imaging/biodistribution studies. For these studies, mice were anesthetized with isoflurane (2.0%) via an induction chamber and maintained with a nose cone. After anesthetization, the mice were secured in a supine position and placed in an acrylic imaging tray. Following intravenous tail-vein administration of ^68Ga-Galuminox (100 μL; 100 μCi; 2% ethanol in saline, 3.7 MBq), dynamic preclinical PET scans were performed over 60 min, using Inveon PET/CT scanner (Siemens Medical Solutions). PET data were stored in list mode, and reconstruction was performed using a 3D-OSEM method with detector efficiency, decay, dead time, attenuation, and scatter corrections applied. For anatomical visualization, PET images were also co-registered with CT images from an Inveon PET/CT scanner. ROIs were drawn over the lung, and standard uptake values (SUV) were calculated as the mean radioactivity per injected dose per animal weight.

[5] = tested on: left transplanted lung; experiment: MicroPET/CT imaging in mouse lung transplant model of CLAD; type: in vivo, mice; conditions: 4 days post left lung transplant; PET/CT 30 min post injection, 20 min static scan
Protocol: The next experiment was an evaluation of Galuminox in a mouse lung transplant model of CLAD. Allogeneic (FVB) left lung recipients (B16 mice) were treated with immunosuppression agents CD40L and CTLA4Ig to induce tolerance. Despite treatment with immunosuppressant drugs, allogeneic transplants show OB lesions as a function of time, normally defined as early stages of disease progression (early CLAD) and late stages of disease progression (fulminant CLAD).
4 days post left lung transplant from FVB mice (donor) into B16 mice (acceptor), both transplanted mice and un-transplanted control counterparts were imaged using PET/CT 30 minutes post tail-vein administration of ^68Ga-Galuminox using static acquisition scan of 20 min (FIG. 12A). PET images were co-registered with CT for anatomical correlation. Standard Uptake Values (SUVs) were determined by drawing ROI, and counts were normalized to injected dose and weights of animals (FIG. 12B).

[6] = LPS vs saline, 1 h post injection

With COc1ccccc1OCCNCC(O)COc1cccc2[nH]c3ccccc3c12 (stereo not drawn) [CAR, Carvedilol] the “Galuminox probe uptake in the presence of the drug compared to control A549 cells” value [1] was “significantly decreased”.

For Nc1ccc2c(c1)C(c1ccccc1)N(CCCCCC[P+](c1ccccc1)(c1ccccc1)c1ccccc1)c1cc(N)ccc1-2.[I-] (stereo not drawn) [MitoSOX], the “probe fluorescence, LPS stimulated vs untreated A549 control cells” value [2] was “higher fluorescence”.

For CC1(C)CC(NC(=O)C[P+](c2ccccc2)(c2ccccc2)c2ccccc2)CC(C)(C)N1[O] [Mito-Tempo], the “Galuminox probe uptake in the presence of the drug compared to control A549 cells” value [1] was “significantly decreased”.

In the case of C[C@@H](CN1CC(=O)NC(=O)C1)N1CC(=O)NC(=O)C1 [DEX, Dexrazoxane], the “Galuminox probe uptake in the presence of the drug compared to control A549 cells” value [1] is reported as “significantly decreased”.

In the case of O=C(CNC(=S)Nc1ccc(CC2CN3CCN4CCN2CC(=O)[O][68Ga]([O]C(=O)C4)[O]C(=O)C3)cc1)Nc1cccc2c(=O)[nH][nH]c(=O)c12 (stereo not drawn) [^68Ga-Galuminox], the “excretion profiles (biodistribution)” value ([3]; 1 h post injection) is reported as “both hepatobiliary- and renal-modes of excretion”, the “Biodistribution, Bladder” value ([3]; Control (saline)) is reported as 162.956 % ID/g and the “Biodistribution, Blood” value ([3]; Control (saline)) is reported as 2.82±0.88 % ID/g and 2.822 % ID/g. The “Biodistribution, Bone” value ([3]; Control (saline)) was 1.0±0.34 % ID/g and 1.002 % ID/g, the “Biodistribution, Brain” value ([3]; Control (saline)) was 0.5693 % ID/g and the “Biodistribution, Colon” value ([3]; Control (saline)) was 0.8617 % ID/g. The “Biodistribution, Fat” value ([3]; Control (saline)) was 0.6117 % ID/g, the “Biodistribution, Heart” value ([3]; Control (saline)) was 2.381 % ID/g and the “Biodistribution, Intestine” value ([3]; Control (saline)) was 4.286 % ID/g. The “Biodistribution, Kidney” value ([3]; Control (saline)) was 13.0965 % ID/g, the “Biodistribution, Liver” value ([3]; Control (saline)) was 6.14±0.66 % ID/g and 6.138 % ID/g and the “Biodistribution, Lung” value ([3]; Control (saline)) was 39.7±19.3 % ID/g and 39.7 % ID/g. The “Biodistribution, Muscle” value ([3]; Control (saline)) was 1.084 % ID/g, the “Biodistribution, Bladder” value ([3]; LPS treated) was 5.893 % ID/g and the “Biodistribution, Blood” value ([3]; LPS treated) was 3.96±1.83 % ID/g and 3.96 % ID/g. For the same molecule, the “Biodistribution, Bone” value ([3]; LPS treated) was 2.14±0.57 % ID/g and 2.138 % ID/g, the “Biodistribution, Brain” value ([3]; LPS treated) was 0.2628 % ID/g and the “Biodistribution, Colon” value ([3]; LPS treated) was 0.2924 % ID/g. The “Biodistribution, Fat” value ([3]; LPS treated) was 0.3021 % ID/g, the “Biodistribution, Heart” value ([3]; LPS treated) was 1.073 % ID/g and the “Biodistribution, Intestine” value ([3]; LPS treated) was 1.314 % ID/g. For the same molecule, the “Biodistribution, Kidney” value ([3]; LPS treated) was 3.048 % ID/g, the “Biodistribution, Liver” value ([3]; LPS treated) was 10.5±1.68 % ID/g and 10.46 % ID/g and the “Biodistribution, Lung” value ([3]; LPS treated) was 147.9±25.8 % ID/g and 147.8875 % ID/g. For the same molecule, the “Biodistribution, Muscle” value ([3]; LPS treated) was 0.294 % ID/g, the “bone retention, LPS vs saline” value [3, 6] was 2.1 fold and the “higher retention in lungs of LPS treated mice vs saline-only (biodistribution)” value [3, 6] was 4 fold. For the same molecule, the “higher retention in the blood of LPS treated mice vs saline” value [3, 6] was 1.4 fold, the “liver retention, LPS vs saline” value [3, 6] was 1.7 fold and the “higher specific retention in lungs of LPS treated mice (lung normalized to blood)” value ([3]; lung 4 fold / blood 1.4 fold) was 3 fold and 2.85 fold. For the same molecule, the “SUV time-activity curves, retention in lungs of LPS-treated mice” value ([4]; 0-60 min dynamic PET) was “consistently higher and stable retention”, the “Standard Uptake Value (SUV) in lungs” value ([4]; LPS-treated mice (5 μg/g, 24 h)) was 12.9±1.85 and the “mode of excretion (PET pharmacokinetics)” value ([4]; mouse, in vivo) was “dominant renal mode of probe excretion”. The “Standard Uptake Value (SUV) in lungs” value ([4]; saline (vehicle) only treated mice) was 2.62±0.48 and the “higher uptake in the left transplanted lung compared with untransplanted mice (SUV)” value [5] was 1.5 fold.
